Data set [1] deals with T1, MBP-RAMP2 ECD [L106R]-(GSA)3-CLR ECD-H6 (Homo sapiens, UniProt O60895+Q16602, L106R).
T1 construct: MBP-hRAMP2.55-140 [L106R]-(Gly-; Ser-Ala)3-hCLR.29-144-H6 proteins; made in house; host or cells: E. coli (co-expressed with DsbC)
The data set can be described thus: Competition AlphaScreen, AM1 receptor ECD complex [L106R]. To be noted: for binding of swap peptide: competition AlphaScreen, Figures 6H-6J. It counts as binding. The text has this:
(§1) Plasmid construction, mutagenesis, protein expression, purification, and the AlphaScreen peptide-binding assay were as previously described with minor modifications to the AlphaScreen assay ([Hill and Pioszak, 2013]; [Moad and Pioszak, 2013]). Synthetic peptides were from RS Synthesis, Bachem, or were synthesized in-house. Details are in Supplemental Experimental Procedures.
(§2) Supplemental Experimental Procedures
(§3) Plasmid construction and protein production and characterization. Bacterial pETDuet1 […]
(§4) numbers indicated) fusion proteins co-expressed with DsbC were constructed using the Gibson Assembly cloning method with Gibson Assembly master mix (New England […]
(§5) 2014). Site directed mutagenesis was performed with the QuikChange II kit (Agilent) or using the Gibson Assembly method. Primer sequences are available upon request. All constructs were verified by automated DNA sequencing.
(§6) The tethered ECD fusion proteins were expressed in E. coli, purified, and characterized for peptide binding with an AlphaScreen peptide binding assay as previously described (Moad and Pioszak, 2013), except that the AlphaScreen competition assays also included 0.3% (v/v) Triton X-100 in the reaction buffer. Triton X-100 […]
(§7) reactions in which the donor and acceptor beads were brought together by a Biotin-(Gly)6-(His)6 peptide. The binding experiments were conducted at least three times with each independent experiment performed with duplicate samples. pIC50 values are stated as the mean of the replicate independent experiments ± S.E.M. Although slight variation […]
(§8) Peptides. […]
(Bead proximity is the source of the signal in Alpha formats.)

Data set [2] deals with T2, MBP-RAMP2 ECD-(GS)5-CLR ECD-H6 (WT RAMP2 ECD-CLR ECD fusion) (Homo sapiens, UniProt O60895+Q16602).
T2 construct: MBP-hRAMP2.55-140-(Gly-Ser-Ala)3-hCLR.29-144-H6; made in house; host or cells: E. coli
The data set can be described thus: Competition AlphaScreen, WT RAMP2 ECD-CLR ECD fusion. Format: binding. Conditions: text (Fig S1C), approximate.
Description: as §1, §2, §3
(§9) numbers indicated) fusion proteins co-expressed with DsbC were constructed using the Gibson Assembly cloning method with Gibson Assembly master mix (New England Biolabs). Plasmids for expression of tagged full-length CLR and RAMP1 or -2 receptors in mammalian cells were previously described (Barwell et al., 2010; Watkins et al., 2014). Site directed mutagenesis was performed with the QuikChange II kit (Agilent) or using the Gibson Assembly method. Primer sequences are available upon request. All constructs were verified by automated DNA sequencing.
as §6

The target in data set [3] is T3, MBP-RAMP1 ECD-(GSA)3-CLR ECD-H6 (Homo sapiens, UniProt O60894+Q16602).
T3 construct: made in house; host or cells: E. coli (co-expressed with DsbC)
In words: Competition AlphaScreen, CGRP receptor ECD complex. Conditions: for binding of swap peptide: competition AlphaScreen, Figures 6E-6G, 100 nM protein, 100 nM biotin-CGRP. Format: binding.
Description: as §1, §2, §3, §4, §5, §6, §7, §8

The subject of data set [4] is MBP-hRAMP1.24-111-(Gly-Ser-Ala)3-hCLR.29-144-H6. The data set can be described thus: Apparent aggregation in AlphaScreen competition assay, RAMP1-(GSA)3-CLR protein. Format: physicochemical, human. Conditions: reaction buffer with 0.3% (v/v) Triton X-100, which minimized but did not completely prevent it; data not shown.
Description: as §2, §3, §9, §6
Ser-Ala)3-hCLR.29-144-H6 proteins (data not shown).
CGRP analog prevented it from fully competing the binding signal to background levels […]
receptor crystallization construct are likely a bit higher than the true values. Competitor

Setting [5] is: Figure 6I, 100 nM protein, 100 nM biotin-AM, 0.3% Triton X-100, mean ± SEM, at least three independent experiments in duplicate, read-out: pIC50 (converted).
Where [6] appears, read: 100 nM protein, 100 nM biotin-AM.

Consider 5 molecules from paper PMC4504005, “Structural Basis for Receptor Activity-Modifying Protein-Dependent Selective Peptide Recognition by a G Protein-Coupled Receptor” (Molecular cell, 2015).

Like-named read-outs stand apart in the source and are kept apart here. Ends that are not written are not given here.

In the case of `CC[C@H](C)[C@H](NC(=O)[C@H](CCC(N)=O)NC(=O)[C@H](Cc1c[nH]cn1)NC(=O)[C@H](C)NC(=O)[C@H](CC(C)C)NC(=O)[C@H](CCCCN)NC(=O)[C@H](CCC(N)=O)NC(=O)[C@@H](NC(=O)[C@@H](N)[C@@H](C)O)C(C)C)C(=O)N[C@@H](Cc1ccc(O)cc1)C(=O)N[C@@H](CCC(N)=O)C(=O)N[C@@H](Cc1ccccc1)C(=O)N[C@H](C(=O)N[C@@H](CC(=O)O)C(=O)N[C@@H](CCCCN)C(=O)N[C@@H](CC(=O)O)C(=O)N[C@@H](CCCCN)C(=O)N[C@@H](CC(=O)O)C(=O)N[C@@H](CC(N)=O)C(=O)N[C@H](C(=O)N[C@@H](C)C(=O)N1CCC[C@H]1C(=O)N[C@@H](CCCNC(=N)N)C(=O)N[C@@H](CO)C(=O)N[C@@H](CCCCN)C(=O)N[C@H](C(=O)N[C@@H](CO)C(=O)N1CCC[C@H]1C(=O)N[C@@H](CCC(N)=O)C(=O)NCC(=O)N[C@@H](Cc1ccc(O)cc1)C(N)=O)[C@@H](C)CC)C(C)C)[C@@H](C)O` [AM(22-52)NH2], the IC50 in data set [1] (AlphaScreen competition, text (Figs S1C, S1H), approximate, read-out: IC50) is 5 to 15 µM; in data set [1] (Figure 6H, 100 nM protein, 100 nM biotin-AM, 0.3% Triton X-100, mean ± SEM, at least three independent experiments in duplicate, read-out: pIC50 (converted)), 12 µM; in data set [1] (setting [5]), 14.5 µM; in data set [2] it was 5 to 15 µM.

In turn, `CC(C)[C@H](NC(=O)[C@H](CC(=O)O)NC(=O)[C@@H](NC(=O)[C@@H]1CCCN1C(=O)[C@@H](NC(=O)[C@@H](N)Cc1ccccc1)C(C)C)[C@@H](C)O)C(=O)NCC(=O)N1CCC[C@H]1C(=O)N[C@@H](Cc1ccccc1)C(=O)N[C@@H](C)C(=O)N[C@@H](Cc1ccccc1)C(N)=O` [CGRPmut] had an IC50 in data set [3] of 457 nM. The apparent aggregation entry in data set [4] is listed as “apparent aggregation”.

With “AM(37–52)NH2 [Y52F]: C-terminal residue swap of minimal ECD complex-binding AM peptide”, the “binding of swap peptide” value in data set [3] is “did not gain increased affinity for the CGRP receptor ECD complex”; in data set [1] (setting [6]), “exhibited significantly diminished binding to the AM1 receptor ECD complex”.

Regarding DKDNVAPRSKISPQGY-NH2 [AM(37–52)], the IC50 in data set [1] (Figure 6J, 100 nM protein, 100 nM biotin-AM, 0.3% Triton X-100, mean ± SEM, at least three independent experiments in duplicate, read-out: pIC50 (converted)) was 10 µM.

In the case of FVPTDVGPFAY-NH2 [CGRPmut [F37Y]], the “binding of swap peptide” value in data set [3] is listed as “retained CGRP receptor ECD complex binding”; in data set [1] (setting [6]), “gained the ability to bind the AM1 receptor ECD complex as strongly as AM”. Moreover, in data set [1] (setting [5]), the IC50 was 16.2 µM.
